Results on two compounds are retold here after patent US20050158320A1, “Combinations for the treatment of proliferative diseases” (priority 2003, published 2005).

Assay [1] has as its system Human colon adenocarcinoma cell line HCT116. The assay can be described thus: anti-proliferation assay (Alamar Blue). The following applies: read-out: percent inhibition (% I) of cell proliferation. Format: cell-based. The procedure:
Cells were diluted in culture media such that 3000 cells were delivered in 20 μL of media into each assay well. […] Quantification, using an LJL Analyst AD reader (LJL Biosystems), was taken in the middle of the well with high attenuation, a 100 msec read time, an excitation filter at 530 nm, and an emission filter at 575 nm. For some experiments, quantification was performed using a Wallac Victor2 reader. Measurements were taken at the top of the well with stabilized energy lamp control; a 100 msec read time, an excitation filter at […], and an emission filter at 590 nm. No significant differences between plate readers were measured. The percent inhibition (% I) for each well was calculated using the following formula: % I=[(avg. untreated wells−treated well)/(avg. untreated wells)]×100 […] Negative inhibition values result from local variations in treated wells as compared to untreated wells.
For orientation: The colour change of resazurin is a common sign of viable cells or microbes.

Assay [2] concerns the target T1, Recombinant HsEg5/KSP kinesin motor protein (Homo sapiens, UniProt P52732).
T1 sequence (P52732 1-1056): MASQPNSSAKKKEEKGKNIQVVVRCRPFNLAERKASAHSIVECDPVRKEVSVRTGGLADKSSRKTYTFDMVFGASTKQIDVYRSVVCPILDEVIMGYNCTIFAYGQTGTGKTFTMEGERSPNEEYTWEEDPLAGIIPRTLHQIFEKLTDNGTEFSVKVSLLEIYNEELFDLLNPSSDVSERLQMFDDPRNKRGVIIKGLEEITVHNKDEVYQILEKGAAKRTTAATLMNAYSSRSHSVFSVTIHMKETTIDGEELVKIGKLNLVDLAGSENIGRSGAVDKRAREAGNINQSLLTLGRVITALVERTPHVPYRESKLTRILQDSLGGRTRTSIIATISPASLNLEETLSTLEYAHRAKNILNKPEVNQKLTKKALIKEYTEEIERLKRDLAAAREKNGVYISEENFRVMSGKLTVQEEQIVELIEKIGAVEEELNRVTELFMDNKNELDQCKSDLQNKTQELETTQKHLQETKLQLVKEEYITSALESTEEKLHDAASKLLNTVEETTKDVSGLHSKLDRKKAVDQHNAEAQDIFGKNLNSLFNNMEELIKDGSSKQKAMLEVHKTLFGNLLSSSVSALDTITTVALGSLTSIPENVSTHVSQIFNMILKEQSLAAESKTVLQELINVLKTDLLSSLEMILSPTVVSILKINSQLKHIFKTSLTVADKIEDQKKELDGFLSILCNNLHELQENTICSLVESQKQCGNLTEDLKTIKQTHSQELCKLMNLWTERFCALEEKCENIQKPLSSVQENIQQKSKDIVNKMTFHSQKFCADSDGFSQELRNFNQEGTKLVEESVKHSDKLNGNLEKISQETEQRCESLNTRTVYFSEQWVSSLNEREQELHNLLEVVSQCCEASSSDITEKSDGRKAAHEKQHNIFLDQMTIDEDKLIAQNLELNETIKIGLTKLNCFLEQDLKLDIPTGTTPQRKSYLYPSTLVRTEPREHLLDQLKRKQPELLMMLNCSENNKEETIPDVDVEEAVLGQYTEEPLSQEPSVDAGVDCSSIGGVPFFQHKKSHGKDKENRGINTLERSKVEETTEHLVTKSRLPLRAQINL
The assay can be described thus: cell free motor assay (Kinesin ATPase End Point Biochem Kit, microtubule activated ATPase activity). It counts as biochemical. The procedure:
This assay measures organic phosphate (Pi) generated during microtubule activated ATPase activity of kinesin motor proteins. Recombinant HsEg5/KSP kinesin motor protein activity was assayed using the Kinesin ATPase End Point Biochem Kit (Cytoskeleton, catalog # BK053) following the manufacturer's instructions for amounts of reaction buffer, ATP and microtubules. The amount of HsEg5/KSP kinesin protein was optimized to 0.8 μg per reaction and included where indicated. Each assay was performed in a total reaction volume of 30 μL in a clear 96 well ½ area plate (Coming Inc., Costar and cat # 3697) and included the following conditions: • 1. a reaction blank consisting of reaction buffer and ATP only; • 2. negative control reactions containing: • a. microtubules and ATP without kinesin protein or • b. kinesin HsEg5/KSP and ATP without microtubules; and • 3. experimental reactions containing ATP, kinesin, and microtubules with or without compound at the indicated final concentrations.
Reactions were pre-incubated for 15 minutes at room temperature prior to the addition of ATP. After ATP addition, reactions were allowed to proceed for 10 minutes at room temperature prior to termination by the addition of 70 μL of CytoPhos Reagent. Following a last 10-minute incubation at room temperature, reactions were quantitated by reading the absorbance at 650 nm on a spectrophotometer (Beckman Instruments, Inc., Model DU 530). Raw absorbance values were corrected by subtracting the absorbance of the blank. Absorbance was converted into Pi concentration by comparison with a standard Pi curve. Percent inhibition was calculated from Pi concentration according to the following formula: % Inhibition=(untreated-treated)/untreated×100. The arithmetic mean was generated from percent inhibition of experimental replicates.

The test system of assay [3] is PRL phosphatases. As to conditions: Pathak et al., Mol. Cancer Ther. 2002; cited from earlier work.

Like-named read-outs stand apart in the source and are kept apart here.

With `CN(C)CCCN1c2ccccc2Sc2ccc(Cl)cc21` [Chlorpromazine, chlorpromazine], the inhibition at 4 µM in assay [1] (HCT-116, chlorpromazine 4 μM, pentamidine 0 μM) was 2.9%; in assay [2] (chlorpromazine 4 μM, mean, n = 4, read-out: Percent inhibition of kinesin motor activity), 17.4%. The inhibition at 6 µM in assay [1] (HCT-116, chlorpromazine 6 μM, pentamidine 0 μM) worked out at 0.11%. Besides, in assay [1] (HCT-116, chlorpromazine 7.5 μM, pentamidine 0 μM), the inhibition at 7.5 µM amounted to 5.4%. Besides, the inhibition at 9 µM in assay [1] (HCT-116, chlorpromazine 9 μM, pentamidine 0 μM) worked out at 4.1%. Moreover, the inhibition at 10 µM in assay [1] (HCT-116, chlorpromazine 10 μM, pentamidine 0 μM) is 16%. Further, the inhibition at 12 µM in assay [1] (HCT-116, chlorpromazine 12 μM, pentamidine 0 μM) is 22%. The inhibition at 16 µM in assay [1] (HCT-116, chlorpromazine 16 μM, pentamidine 0 μM) came to 39%; in assay [2] (chlorpromazine 16 μM, mean, n = 4, read-out: Percent inhibition of kinesin motor activity), 85.8%. Further, the inhibition at 20 µM in assay [1] (HCT-116, chlorpromazine 20 μM, pentamidine 0 μM) is 56%. Further, the inhibition at 22 µM in assay [1] (HCT-116, chlorpromazine 22 μM, pentamidine 0 μM) is 59%. Also, the “mitotic kinesin inhibition (in words)” value in assay [2] (cell free motor assay) is “mitotic kinesin inhibitor”. Further, the inhibition at 1 µM in assay [2] (chlorpromazine 1 μM, mean, n = 4, read-out: Percent inhibition of kinesin motor activity) is -5.51%. Further, in assay [2] (chlorpromazine 2 μM, mean, n = 4, read-out: Percent inhibition of kinesin motor activity), the inhibition at 2 µM is -11.2%. For the same compound, in assay [2] (chlorpromazine 8 μM, mean, n = 4, read-out: Percent inhibition of kinesin motor activity), the inhibition at 8 µM was found to be 52.9%. Moreover, the inhibition at 32 µM in assay [2] (chlorpromazine 32 μM, mean, n = 4, read-out: Percent inhibition of kinesin motor activity) was found to be 97.8%. Also, the inhibition at 64 µM in assay [2] (chlorpromazine 64 μM, mean, n = 4, read-out: Percent inhibition of kinesin motor activity) was 105%.

In the case of `N=C(N)c1ccc(OCCCCCOc2ccc(C(=N)N)cc2)cc1` [Pentamidine, pentamidine], the inhibition at 0.5 µM in assay [1] (HCT-116, chlorpromazine 0 μM, pentamidine 0.5 μM) amounted to 1.2%. In addition, in assay [1] (HCT-116, chlorpromazine 0 μM, pentamidine 1 μM), the inhibition at 1 µM came to 1.9%. Also, in assay [1] (HCT-116, chlorpromazine 0 μM, pentamidine 2 μM), the inhibition at 2 µM worked out at 3.1%. Besides, in assay [1] (HCT-116, chlorpromazine 0 μM, pentamidine 4 μM), the inhibition at 4 µM is -0.77%. Also, the inhibition at 6 µM in assay [1] (HCT-116, chlorpromazine 0 μM, pentamidine 6 μM) is 5%. In addition, the inhibition at 9 µM in assay [1] (HCT-116, chlorpromazine 0 μM, pentamidine 9 μM) is 9%. For the same compound, the inhibition at 12 µM in assay [1] (HCT-116, chlorpromazine 0 μM, pentamidine 12 μM) is 9.9%. Further, the inhibition at 15 µM in assay [1] (HCT-116, chlorpromazine 0 μM, pentamidine 15 μM) is 16%. Further, the inhibition at 20 µM in assay [1] (HCT-116, chlorpromazine 0 μM, pentamidine 20 μM) worked out at 19%. Further, the “PRL phosphatase inhibition (in words)” value in assay [3] is “inhibitor of the PRL phosphatases”.
